# Test results from patent US10137079B2, “Transdermal composition for treating pain” (priority 2014, dated 2018).
# Assays:
# skin [1] = conditions: FDA Safety Announcement Sep. 13, 2012; cited from earlier work
# skin [2] = conditions: in vivo
# From the text: Menthol can optionally be added to overcome the burning sensation caused by the capsaicin. […] 13, 2012 has reported that skin can burn with menthol concentrations above 3% (http://www.fda.gov/Drugs/DrugSafety/ucm318858.htm). Thus, in one embodiment, the concentration of menthol in the ethosome compositions is less than about 3% by weight. In another embodiment, the concentration of menthol in the ethosome compositions is about 2% by weight.
compound,measurement,setting,value
CC1CCC(C(C)C)C(O)C1 (centres unmarked) [Menthol],menthol concentrations at which skin can burn,skin [1],above 3%
same,burning sensation,skin [2],can cause a burning sensation on its own
